Square brackets hold non-standard residues; d marks the D form. Peptide text beside a SMILES is read from it. * marks the point of attachment. Ala(1H-tetrazol-5-yl) = N[C@@H](Cc1nnn[nH]1)C(=O)O; Nle = CCCC[C@H](N)C(=O)O; Ms = CS(=O)(=O)*
How the values were obtained:
Type in all cases: physicochemical
[1] = Peptide stability tests 2 and 3: Tris buffer pH 7.0, stored at 60° C., HPLC conditions 2; details: 100 μM peptide, Tris buffer pH 7.0, 60° C.
Outline: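 Peptides at 100 μM in Tris buffer pH 7.0, held 1 or 2 weeks at 60° C. An unstored sample served as standard. Water-corrected survival rate by HPLC on C18 at 40° C., 0.1% formic acid water/acetonitrile gradient, 220 nm detection.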

[2] = Peptide stability test 1: aqueous solution, phosphate buffer pH 7.0, stored at 40° C., HPLC conditions 1; details: phosphate buffer pH 7.0, 40° C.; for survival rate after correction for water, 40° C., 1-month storage / survival rate after correction for water, 40° C., 2-month storage: 100 μM peptide; for survival rate after correction for water, 40° C., 2-month storage: 2 months
Description: Peptides 1 and 3 to 5 synthesized in Example 2 were weighed and dissolved in phosphate buffer (pH 7.0) to prepare 1.0 mM peptide solutions. The 1.0 mM peptide solutions were then diluted with phosphate buffer to 100 μM. After filtering with. Chromatdisk (product of Merck Millipore, Millex-GV, 0.22 μm), each filtrate was dispensed into an LC vial (Waters Deactivated Qsert Vial). The prepared peptide solutions were incubated for one month or 2 months in a 40° C. thermostatic bath to obtain stored samples. A simultaneously prepared sample among the peptide solutions that was not stored was used as a standard sample (initial sample). The standard sample and the stored samples were stored at −30° C. until sample analysis.
Using the total weight of the aqueous peptide solution and storage vessel as the specimen weight, measurements were recorded as the specimen weights before storage and the specimen weights after storage under different storage conditions. The empty weight of the storage vessel was also measured, and the moisture permeability was determined by the following formula.
After stirring the standard sample and the stored samples on a vortex mixer, each peptide solution was transferred to an HPLC vial (Deactivated Qsert vial by Waters Co.). Reverse-phase HPLC (HPLC system: Prominence by Shimadzu Corp.) was conducted under the conditions shown in Table 3 below for analysis of the_peptide solutions, and chromatograms were obtained.
Column: XSelect CSH C18 by Waters Co., 5 μm, 4.6×250 mm
Guard column: XSelect CSH C18 by Waters. Co., 5 μm, 4.6×20 mm Guard Cartridge
Detection wavelength: 220 nm
Mobile phase A: 0.1% formic acid in water
Mobile phase B: 0.1% formic acid in acetonitrile
Measuring time: 30 minutes
Measuring sample injection rate: 50 μL
Column temperature: 40° C.
Mobile phase delivery: The mixing ratio of mobile phase A and mobile phase B was varied as shown in Table 3 for linear concentration gradient control.
The peak area value for the peptide in the chromatogram was calculated, and the survival rate (survival rate before correction for water) was calculated using formula (2). The survival rate after correction for water was also calculated from the survival rate before correction for water using formula (3), taking into account the moisture permeability of the container.

[3] = Peptide stability test 4: phosphate buffer pH 7.0, stored at 40° C.; details: phosphate buffer pH 7.0, 40° C.; for survival rate after correction for water, 40° C., 1-month storage / survival rate after correction for water, 40° C., 2-month storage: 100 μM peptide; for survival rate after correction for water, 40° C., 2-month storage: 2 months
Description: Peptides 10 and 11 synthesized in Example 2 were weighed and dissolved in phosphate buffer (pH 7.0) to prepare 1.0 mM peptide solutions. The solutions were filtered with a Chromatdisk (product of Merck Millipore, Millex-GV, 0.22 Each filtrate was diluted to 100 μM with phosphate buffer (pH 7.0) and dispensed into a tube (Protein LoBind Tube by Eppendorf Co.). The prepared peptides were incubated for one month or 2 months in a 40° C. thermostatic bath to obtain stored samples. A simultaneously prepared sample among the peptide solutions that was not stored was used as a standard sample (initial sample). The standard sample and the stored samples were stored at −30° C. until sample analysis.
The survival rate after correction for water for each peptide among the stored samples was measured in the same manner as Example 4, and the results are shown in Table 8.

Structure (SMILES)	survival rate after correction for water, 60° C., 1-week storage ([1]; 1 week)	survival rate after correction for water, 60° C., 2-week storage ([1]; 2 weeks)	survival rate after correction for water, 40° C., 1-month storage [2]	survival rate after correction for water, 40° C., 2-month storage [2]	stability in aqueous solution, in words [2]	survival rate after correction for water, 40° C., 1-month storage [3]	survival rate after correction for water, 40° C., 2-month storage [3]	stability in aqueous solution, in words [3]
CC[C@H](C)[C@H](NC(=O)CNC(=O)[C@H](CC(=O)O)NC(=O)[C@H](CO)NC(=O)[C@@H](N)Cc1c[nH]cn1)C(=O)N[C@@H](Cc1ccccc1)C(=O)N[C@H](C(=O)N[C@@H](CC(=O)O)C(=O)N[C@@H](CO)C(=O)N[C@@H](Cc1ccc(O)cc1)C(=O)N[C@@H](CO)C(=O)N[C@@H](CCCNC(=N)N)C(=O)N[C@@H](Cc1ccc(O)cc1)C(=O)N[C@@H](CCCNC(=N)N)C(=O)N[C@@H](CCCCN)C(=O)N[C@@H](CCC(N)=O)C(=O)N[C@@H](CCSC)C(=O)N[C@@H](C)C(=O)N[C@H](C(=O)N[C@@H](CCCCN)C(=O)N[C@@H](CCCCN)C(=O)N[C@@H](Cc1ccc(O)cc1)C(=O)N[C@@H](CC(C)C)C(=O)N[C@@H](C)C(=O)N[C@@H](C)C(=O)N[C@H](C(=O)N[C@@H](CC(C)C)C(N)=O)C(C)C)C(C)C)[C@@H](C)O [Peptide 1, reference compound]	26.6%	15.8%	37.4%	21.3%	–	–	–	–
CC[C@H](C)[C@H](NC(=O)CNC(=O)[C@H](Cc1nnn[nH]1)NC(=O)[C@H](CO)NC(=O)[C@@H](N)Cc1c[nH]cn1)C(=O)N[C@@H](Cc1ccccc1)C(=O)N[C@H](C(=O)N[C@@H](CC(=O)O)C(=O)N[C@@H](CO)C(=O)N[C@@H](Cc1ccc(O)cc1)C(=O)N[C@@H](CO)C(=O)N[C@@H](CCCNC(=N)N)C(=O)N[C@@H](Cc1ccc(O)cc1)C(=O)N[C@@H](CCCNC(=N)N)C(=O)N[C@@H](CCCCN)C(=O)N[C@@H](CCC(N)=O)C(=O)N[C@@H](CCSC)C(=O)N[C@@H](C)C(=O)N[C@H](C(=O)N[C@@H](CCCCN)C(=O)N[C@@H](CCCCN)C(=O)N[C@@H](Cc1ccc(O)cc1)C(=O)N[C@@H](CC(C)C)C(=O)N[C@@H](C)C(=O)N[C@@H](C)C(=O)N[C@H](C(=O)N[C@@H](CC(C)C)C(N)=O)C(C)C)C(C)C)[C@@H](C)O [Peptide 3]	–	–	76.5%	60.7%	higher stability than peptide 1	–	–	–
CC[C@H](C)[C@H](NC(=O)CNC(=O)[C@H](CC(=O)O)NC(=O)[C@H](CO)NC(=O)[C@@H](N)Cc1c[nH]cn1)C(=O)N[C@@H](Cc1ccccc1)C(=O)N[C@H](C(=O)N[C@@H](Cc1nnn[nH]1)C(=O)N[C@@H](CO)C(=O)N[C@@H](Cc1ccc(O)cc1)C(=O)N[C@@H](CO)C(=O)N[C@@H](CCCNC(=N)N)C(=O)N[C@@H](Cc1ccc(O)cc1)C(=O)N[C@@H](CCCNC(=N)N)C(=O)N[C@@H](CCCCN)C(=O)N[C@@H](CCC(N)=O)C(=O)N[C@@H](CCSC)C(=O)N[C@@H](C)C(=O)N[C@H](C(=O)N[C@@H](CCCCN)C(=O)N[C@@H](CCCCN)C(=O)N[C@@H](Cc1ccc(O)cc1)C(=O)N[C@@H](CC(C)C)C(=O)N[C@@H](C)C(=O)N[C@@H](C)C(=O)N[C@H](C(=O)N[C@@H](CC(C)C)C(N)=O)C(C)C)C(C)C)[C@@H](C)O [Peptide 4] (H-HSDGIFT[Ala(1H-tetrazol-5-yl)]SYSRYRKQMAVKKYLAAVL-NH2)	–	–	42.8%	28.2%	increased stability compared to peptide 1	–	–	–
CC[C@H](C)[C@H](NC(=O)CNC(=O)[C@H](Cc1nnn[nH]1)NC(=O)[C@H](CO)NC(=O)[C@@H](N)Cc1c[nH]cn1)C(=O)N[C@@H](Cc1ccccc1)C(=O)N[C@H](C(=O)N[C@@H](Cc1nnn[nH]1)C(=O)N[C@@H](CO)C(=O)N[C@@H](Cc1ccc(O)cc1)C(=O)N[C@@H](CO)C(=O)N[C@@H](CCCNC(=N)N)C(=O)N[C@@H](Cc1ccc(O)cc1)C(=O)N[C@@H](CCCNC(=N)N)C(=O)N[C@@H](CCCCN)C(=O)N[C@@H](CCC(N)=O)C(=O)N[C@@H](CCSC)C(=O)N[C@@H](C)C(=O)N[C@H](C(=O)N[C@@H](CCCCN)C(=O)N[C@@H](CCCCN)C(=O)N[C@@H](Cc1ccc(O)cc1)C(=O)N[C@@H](CC(C)C)C(=O)N[C@@H](C)C(=O)N[C@@H](C)C(=O)N[C@H](C(=O)N[C@@H](CC(C)C)C(N)=O)C(C)C)C(C)C)[C@@H](C)O [Peptide 5] (H-HS[Ala(1H-tetrazol-5-yl)]GIFT[Ala(1H-tetrazol-5-yl)]SYSRYRKQMAVKKYLAAVL-NH2)	–	–	94.7%	85.6%	further increased stability over peptide 3 and peptide 4	–	–	–
CC[C@H](C)[C@H](NC(=O)CNC(=O)[C@H](Cc1nnn[nH]1)NC(=O)[C@H](CO)NC(=O)[C@H](Cc1c[nH]cn1)NC(C)=O)C(=O)N[C@@H](Cc1ccccc1)C(=O)N[C@H](C(=O)N[C@@H](Cc1nnn[nH]1)C(=O)N[C@@H](CO)C(=O)N[C@@H](Cc1ccc(O)cc1)C(=O)N[C@@H](CO)C(=O)N[C@@H](CCCNC(=N)N)C(=O)N[C@@H](Cc1ccc(O)cc1)C(=O)N[C@@H](CCCNC(=N)N)C(=O)N[C@@H](CCCCN)C(=O)N[C@@H](CCC(N)=O)C(=O)N[C@@H](CCSC)C(=O)N[C@@H](C)C(=O)N[C@H](C(=O)N[C@@H](CCCCN)C(=O)N[C@@H](CCCCN)C(=O)N[C@@H](Cc1ccc(O)cc1)C(=O)N[C@@H](CC(C)C)C(=O)N[C@@H](C)C(=O)N[C@@H](C)C(=O)N[C@H](C(=O)N[C@@H](CC(C)C)C(N)=O)C(C)C)C(C)C)[C@@H](C)O [Peptide 10] (Ac-HS[Ala(1H-tetrazol-5-yl)]GIFT[Ala(1H-tetrazol-5-yl)]SYSRYRKQMAVKKYLAAVL-NH2)	–	–	–	–	–	94.0%	87.8%	stabilized to the same degree
CCCC[C@H](NC(=O)[C@H](CCC(N)=O)NC(=O)[C@H](CCCCN)NC(=O)[C@H](CCCNC(=N)N)NC(=O)[C@H](Cc1ccc(O)cc1)NC(=O)[C@H](CCCNC(=N)N)NC(=O)[C@H](CO)NC(=O)[C@H](Cc1ccc(O)cc1)NC(=O)[C@H](CO)NC(=O)[C@H](Cc1nnn[nH]1)NC(=O)[C@@H](NC(=O)[C@H](Cc1ccccc1)NC(=O)[C@@H](NC(=O)CNC(=O)[C@H](Cc1nnn[nH]1)NC(=O)[C@H](CO)NC(=O)[C@H](Cc1c[nH]cn1)NS(C)(=O)=O)[C@@H](C)CC)[C@@H](C)O)C(=O)N[C@@H](C)C(=O)N[C@H](C(=O)N[C@@H](CCCCN)C(=O)N[C@@H](CCCCN)C(=O)N[C@@H](Cc1ccc(O)cc1)C(=O)N[C@@H](CC(C)C)C(=O)N[C@@H](C)C(=O)N[C@@H](C)C(=O)N[C@H](C(=O)N[C@@H](CC(C)C)C(N)=O)C(C)C)C(C)C [Peptide 11] (Ms-HS[Ala(1H-tetrazol-5-yl)]GIFT[Ala(1H-tetrazol-5-yl)]SYSRYRKQ[Nle]AVKKYLAAVL-NH2)	–	–	–	–	–	94.2%	88.8%	stabilized to the same degree

From US12304932B2, “PACAP stabilized peptide” (SENJU PHARMACEUTICAL CO., LTD., priority 2017, dated 2025)
